Data set [1] is described as follows: Aqueous solubility of the compound in 2% DMSO at pH 7.4 by HPLC analysis. As to conditions: aqueous medium with 2% DMSO. The class given is physicochemical.
In data set [2] the test system is Pseudomonas aeruginosa. Kind of data set: Antivirulence activity in Pseudomonas aeruginosa PA14 assessed as reduction of extracellular level of PQS at 250 uM by UHPLC-MS/MS analysis relative to control. Also noted: scale not given: the % may be the effect or the level left. The class given is functional.
Data set [3] has as its system Pseudomonas aeruginosa. The data set is described as follows: Agonist activity at Pseudomonas aeruginosa PqsR expressed in Escherichia coli DH5alpha assessed as induction of transcriptional activity at 5 uM by beta-galactosidase reporter gene assay relative to PQS. For orientation: A reporter such as luciferase makes a cellular process visible.
A short description of data set [4]: Antagonist activity at Pseudomonas aeruginosa PqsR expressed in Escherichia coli DH5alpha assessed as inhibition of PQS-induced transcriptional activity by beta-galactosidase reporter gene assay relative to PQS.
The test system of data set [5] is Pseudomonas aeruginosa. Kind of data set: Antivirulence activity in Pseudomonas aeruginosa PA14 assessed as reduction of extracellular level of pyocyanin at 250 uM relative to control. The class given is functional. Also noted: scale not given: the % may be the effect or the level left.
Data set [6] concerns Pseudomonas aeruginosa. Kind of data set: Antagonist activity at Pseudomonas aeruginosa PqsR expressed in Escherichia coli DH5alpha assessed as inhibition of PQS-induced transcriptional activity at 50 nM by beta-galactosidase reporter gene assay relative to PQS.
Data set [7] has as its system Pseudomonas aeruginosa. The data set is described as follows: Growth inhibition of Pseudomonas aeruginosa. The class given is organism-based. Conditions: in vivo.
Data set [8] has as its system Pseudomonas aeruginosa. The data set is described as follows: Antagonist activity at Pseudomonas aeruginosa PqsR expressed in Escherichia coli DH5alpha assessed as inhibition of PQS-induced transcriptional activity at 5 uM by beta-galactosidase reporter gene assay relative to PQS.
For data set [9], the system named is Pseudomonas aeruginosa. Kind of data set: Antivirulence activity in Pseudomonas aeruginosa PA14 assessed as reduction of extracellular level of pyocyanin at 100 uM relative to control. The class given is functional. Also on record: scale not given: the % may be the effect or the level left.
In data set [10] the test system is Pseudomonas aeruginosa. The data set is described as follows: Antivirulence activity in Pseudomonas aeruginosa PA14 assessed as reduction of extracellular level of PQS at 100 uM by UHPLC-MS/MS analysis relative to control. The class given is functional. Also on record: scale not given: the % may be the effect or the level left.
The test system of data set [11] is Pseudomonas aeruginosa. Kind of data set: Antivirulence activity in Pseudomonas aeruginosa PA14 assessed as reduction of extracellular level of pyocyanin at 15 uM relative to control. The class given is functional. Also on record: scale not given: the % may be the effect or the level left.
The test system of data set [12] is Pseudomonas aeruginosa. Kind of data set: Antivirulence activity in Pseudomonas aeruginosa PA14 assessed as reduction of extracellular level of PQS at 15 uM by UHPLC-MS/MS analysis relative to control. Also on record: scale not given: the % may be the effect or the level left. The class given is functional.
The test system of data set [13] is Pseudomonas aeruginosa. Kind of data set: Agonist activity at Pseudomonas aeruginosa PqsR expressed in Escherichia coli DH5alpha assessed as induction of transcriptional activity at 10 uM by beta-galactosidase reporter gene assay relative to PQS.
Data set [14] deals with Pseudomonas aeruginosa. Kind of data set: Antivirulence activity in Pseudomonas aeruginosa PA14 assessed as reduction of extracellular level of PQS at 10 uM by UHPLC-MS/MS analysis relative to control. The class given is functional. Also noted: scale not given: the % may be the effect or the level left.
Data set [15] relates to Pseudomonas aeruginosa. The data set is described as follows: Antivirulence activity in Pseudomonas aeruginosa PA14 assessed as reduction of extracellular level of pyocyanin at 10 uM relative to control. The class given is functional. Also on record: scale not given: the % may be the effect or the level left.

Values after ≈ are worked out from the molar mass of the structure shown.

From ChEMBL document CHEMBL3232888, “Optimization of anti-virulence PqsR antagonists regarding aqueous solubility and biological properties resulting in new insights in structure-activity relationships” (Eur J Med Chem, 2014) come the findings set out here.

Usually solubility stands for the concentration that dissolves in the medium under given conditions. The IC50 is the concentration that inhibits the measured activity by half. One may read the inhibition as the relative decrease from the control value, in per cent.

Consider `CCOCCCCc1cc(=O)c2cc(C(F)(F)F)ccc2[nH]1`, for which the solubility in data set [1] was over 200 µM. Also, the Activity in [2] was 8.6%; in data set [3], 0.02%; in [5] it was 39%; in data set [7], “Non-toxic”. Besides, the IC50 in data set [4] was found to be 1710 nM. Moreover, the inhibition in data set [6] is 8%; in data set [8] it was 69%.
`CCOCCCCc1cc(=O)c2cc([N+](=O)[O-])ccc2[nH]1` registered a solubility in data set [1] of 50 µM (≈ 14.5 µg/mL). Besides, the Activity in [3] is 0.13%; in data set [9], 23%; in data set [7], “Non-toxic”; in data set [10], 13%. Besides, in data set [4], the IC50 was 3510 nM. In addition, the inhibition was found to be 6% in data set [6] and 72% in [8].
Consider `CCCCCCCc1cc(=O)c2cc([N+](=O)[O-])ccc2[nH]1`, for which the solubility in data set [1] was under 5 µM. Further, the Activity was 44% in data set [11], 14% in [12], 0% in data set [13] and “Non-toxic” in data set [7]. Moreover, the IC50 in [4] turned out to be 51 nM. Further, the inhibition turned out to be 73% in data set [6] and 100% in [8].
In turn, `CCCCCCCc1cc(=O)c2cc(C(F)(F)F)ccc2[nH]1` had a solubility in data set [1] of under 5 µM. Besides, the Activity in [3] is 0%; in data set [14], 2.4%; in data set [15], 27%; in data set [7], “Non-toxic”. Also, the concentration for half-maximal inhibition (IC50) in data set [4] was 54 nM. The values for the inhibition in [6] and in [8] were 54% and 100%, respectively.
